Measured values: ChEMBL document CHEMBL3272271, “Folate antagonists. 13. 2,4-Diamino-6-](alpha,alpha,alpha-trifluoro-m-tolyl)thio]quinazoline and related 2,4-diamino-6-[(phenyl- and naphthyl)thio]quinazolines, a unique class of antimetabolites with extraordinary antimalarial and antibacterial effects” (J Med Chem, 1978)
In brackets after ≈: the same amount, converted by molar mass. Activity calls are given as the source filed them. The calls are words filed in the database; no cut-off is given here.

Key:
Enterococcus faecalis = experiment: Antibacterial activity against Streptococcus faecalis MGH-2 by gradient plate test; type: functional
Staphylococcus aureus [1] = experiment: Antibacterial activity against Staphylococcus aureus UC-96 by gradient plate test; type: functional
Staphylococcus aureus [2] = experiment: Antibacterial activity against drug-resistant Staphylococcus aureus S18713 by gradient plate test; type: functional
Pseudomonas aeruginosa = experiment: Antibacterial activity against Pseudomonas aeruginosa 28 by gradient plate test; type: functional
Escherichia coli = experiment: Antibacterial activity against Escherichia coli Vogel by gradient plate test; type: functional
Shigella sonnei = experiment: Antibacterial activity against Shigella sonnei C-10 by gradient plate test; type: functional
Plasmodium berghei [3] = experiment: Antimalarial activity against Plasmodium berghei infected in mouse assessed as increase in mean survival days of host at 320 mg/kg, sc administered 72 hrs after infection relative to control; type: functional; conditions: route subcutaneous
Plasmodium berghei [4] = experiment: Antimalarial activity against Plasmodium berghei infected in mouse assessed as increase in mean survival days of host at 160 mg/kg, sc administered 72 hrs after infection relative to control; type: functional; conditions: route subcutaneous
Plasmodium berghei [5] = experiment: Antimalarial activity against Plasmodium berghei infected in mouse assessed as increase in mean survival days of host at 80 mg/kg, sc administered 72 hrs after infection relative to control; type: functional; conditions: route subcutaneous
Plasmodium berghei [6] = experiment: Antimalarial activity against Plasmodium berghei infected in mouse assessed as increase in mean survival days of host at 40 mg/kg, sc administered 72 hrs after infection relative to control; type: functional; conditions: route subcutaneous
Plasmodium berghei [7] = experiment: Antimalarial activity against Plasmodium berghei infected in mouse assessed as increase in mean survival days of host at 20 mg/kg, sc administered 72 hrs after infection relative to control; type: functional; conditions: route subcutaneous
Plasmodium berghei [8] = experiment: Antimalarial activity against Plasmodium berghei infected in mouse assessed as increase in mean survival days of host at 10 mg/kg, sc administered 72 hrs after infection relative to control; type: functional; conditions: route subcutaneous
Plasmodium berghei [9] = experiment: Antimalarial activity against Plasmodium berghei infected in mouse assessed as disease cure from parasite infection at 640 mg/kg, sc administered 72 hrs after infection; type: functional, organism-based; design: dose 640 mg/kg
Plasmodium berghei [10] = experiment: Antimalarial activity against Plasmodium berghei infected in mouse assessed as disease cure from parasite infection at 320 mg/kg, sc administered 72 hrs after infection; type: functional, organism-based; design: dose 320 mg/kg
[11] = test system: Mycobacterium tuberculosis; experiment: Antibacterial activity against Mycobacterium tuberculosis H37Ra by gradient plate test; type: functional
Plasmodium berghei [12] = experiment: Antimalarial activity against Plasmodium berghei infected in mouse assessed as disease cure from parasite infection at 160 mg/kg, sc administered 72 hrs after infection; type: functional, organism-based; design: dose 160 mg/kg
Plasmodium berghei [13] = experiment: Antimalarial activity against Plasmodium berghei infected in mouse assessed as disease cure from parasite infection at 80 mg/kg, sc administered 72 hrs after infection; type: functional, organism-based; design: dose 80 mg/kg
Plasmodium berghei [14] = experiment: Antimalarial activity against trophozoite-induced Plasmodium berghei infected in mouse assessed as daily dose required to suppression of 90% parasite infection administered with diet for 6 days; type: functional
Plasmodium berghei [15] = experiment: Ratio of quinine hydrochloride SD90 to compound SD90 for trophozoite-induced Plasmodium berghei infected in mouse assessed as daily dose required to suppression of 90% parasite infection administered with diet for 6 days; type: functional
Plasmodium berghei [16] = experiment: Antimalarial activity against Plasmodium berghei infected in mouse assessed as increase in mean survival days of host at 5 mg/kg, sc administered 72 hrs after infection relative to control; type: functional; conditions: route subcutaneous
Plasmodium berghei [17] = experiment: Antimalarial activity against Plasmodium berghei infected in mouse assessed as increase in mean survival days of host at 2.5 mg/kg, sc administered 72 hrs after infection relative to control; type: functional; conditions: route subcutaneous
Plasmodium berghei [18] = experiment: Antimalarial activity against Plasmodium berghei infected in mouse assessed as disease cure from parasite infection at 40 mg/kg, sc administered 72 hrs after infection; type: functional, organism-based; design: dose 40 mg/kg
Plasmodium berghei [19] = experiment: Antimalarial activity against Plasmodium berghei infected in mouse assessed as increase in mean survival days of host at 1.25 mg/kg, sc administered 72 hrs after infection relative to control; type: functional; conditions: route subcutaneous
Plasmodium berghei [20] = experiment: Antimalarial activity against Plasmodium berghei infected in mouse assessed as disease cure from parasite infection at 20 mg/kg, sc administered 72 hrs after infection; type: functional, organism-based; design: dose 20 mg/kg
Plasmodium gallinaceum [21] = experiment: Antimalarial activity against trophozoite-induced Plasmodium gallinaceum infected in white leghorn chicken assessed as increase in mean survival days of host at 320 mg/kg, sc administered 72 hrs after infection relative to control; type: functional; conditions: route subcutaneous
Plasmodium gallinaceum [22] = experiment: Antimalarial activity against trophozoite-induced Plasmodium gallinaceum infected in white leghorn chicken assessed as increase in mean survival days of host at 160 mg/kg, sc administered 72 hrs after infection relative to control; type: functional; conditions: route subcutaneous
Plasmodium gallinaceum [23] = experiment: Antimalarial activity against trophozoite-induced Plasmodium gallinaceum infected in white leghorn chicken assessed as increase in mean survival days of host at 80 mg/kg, sc administered 72 hrs after infection relative to control; type: functional; conditions: route subcutaneous
Plasmodium gallinaceum [24] = experiment: Antimalarial activity against trophozoite-induced Plasmodium gallinaceum infected in white leghorn chicken assessed as increase in mean survival days of host at 40 mg/kg, sc administered 72 hrs after infection relative to control; type: functional; conditions: route subcutaneous
Plasmodium gallinaceum [25] = experiment: Antimalarial activity against trophozoite-induced Plasmodium gallinaceum infected in white leghorn chicken assessed as increase in mean survival days of host at 20 mg/kg, sc administered 72 hrs after infection relative to control; type: functional; conditions: route subcutaneous
Plasmodium gallinaceum [26] = experiment: Antimalarial activity against trophozoite-induced Plasmodium gallinaceum infected in white leghorn chicken assessed as increase in mean survival days of host at 10 mg/kg, sc administered 72 hrs after infection relative to control; type: functional; conditions: route subcutaneous

SMILES	MIC (Enterococcus faecalis) [µg/mL]	MIC (Staphylococcus aureus [1]) [µg/mL]	MIC (Staphylococcus aureus [2]) [µg/mL]	MIC (Pseudomonas aeruginosa) [µg/mL]	MIC (Escherichia coli) [µg/mL]	MIC (Shigella sonnei) [µg/mL]	MST (Plasmodium berghei [4]) [days]	MST (Plasmodium berghei [5]) [days]	MST (Plasmodium berghei [6]) [days]	MST (Plasmodium berghei [7]) [days]	MST (Plasmodium berghei [8]) [days]	Activity (Plasmodium berghei [9])	Activity (Plasmodium berghei [10])	MIC [11] [µg/mL]	Activity (Plasmodium berghei [12])	Activity (Plasmodium berghei [13])	other results
COc1cccc(Sc2ccc3nc(N)nc(N)c3c2)c1	< 0.25	< 0.25	< 0.25	> 25	< 0.25	1 (≈ 3.35 µM)	11.7	8.3	5.7	1.5	0.3	Active	Active				MST (Plasmodium berghei [3]): 12.2 days
CC(=O)Nc1ccc(Sc2ccc3nc(N)nc(N)c3c2)cc1	< 0.25	< 0.25	< 0.25	> 25	2.5 (≈ 7.68 µM)	> 25		24.9	12.9	6.3	3.3	Active	Active	> 25	Active	Active	
Nc1nc(N)c2cc(Sc3cc(Cl)cc(Cl)c3)ccc2n1	< 0.25	< 0.25	< 0.25	> 25	2 (≈ 5.93 µM)	20 (≈ 59.3 µM)	17.9	12.7	6.9	4.1	1.1	Active	Active	20 (≈ 59.3 µM)	Active		
CC(C)(C)c1ccc(Sc2ccc3nc(N)nc(N)c3c2)cc1	< 0.25	< 0.25	< 0.25	> 25	10 (≈ 30.8 µM)	15 (≈ 46.2 µM)	7.8	6	2.6	1	1.1	Active	Active				MST (Plasmodium berghei [3]): 17.9 days; SD90 (Plasmodium berghei [14]): 18 mg/kg/day; Ratio (Plasmodium berghei [15]): 4.1
Nc1nc(N)c2cc(Sc3c(Cl)c(Cl)c(Cl)c(Cl)c3Cl)ccc2n1	1.5 (≈ 3.4 µM)	10 (≈ 22.7 µM)	20 (≈ 45.4 µM)	> 25	> 25	> 25			18.1	10.7	6.6		Active		Active	Active	MST (Plasmodium berghei [16]): 2.7 days; MST (Plasmodium berghei [17]): 2 days; Activity (Plasmodium berghei [18]): Active
Cc1c(Sc2ccc(Cl)c(Cl)c2)ccc2nc(N)nc(N)c12										15.4	7.9	Active	Active		Active	Active	MST (Plasmodium berghei [16]): 7.3 days; MST (Plasmodium berghei [17]): 2.5 days; MST (Plasmodium berghei [19]): 1.3 days; Activity (Plasmodium berghei [18]): Active; Activity (Plasmodium berghei [20]): Active
COc1cc(Cc2cnc(N)nc2N)cc(OC)c1OC [TRIMETHOPRIM]	< 0.25	< 0.25	< 0.25	> 25	< 0.25	< 0.25								> 25			SD90 (Plasmodium berghei [14]): 120 mg/kg/day; Ratio (Plasmodium berghei [15]): 0.6
Nc1nc(N)c2cc(NCc3ccc(Cl)c(Cl)c3)ccc2n1																	MST (Plasmodium gallinaceum [21]): 16.6 days; MST (Plasmodium gallinaceum [22]): 15.3 days; MST (Plasmodium gallinaceum [23]): 12.9 days; MST (Plasmodium gallinaceum [24]): 12.1 days; MST (Plasmodium gallinaceum [25]): 7 days; MST (Plasmodium gallinaceum [26]): 2.2 days
